# Measurements taken from ChEMBL document CHEMBL5365393, “Comprehensive coverage on anti-mycobacterial endeavour reported during 2022” (Eur J Med Chem, 2023).
# Key:
# Assay type in all cases: functional
# [1] = system: Mycobacterium tuberculosis; test: Antibacterial activity against isoniazid and rifampicin-resistant Mycobacterium tuberculosis T113/09 assessed as inhibition of bacterial growth
# [2] = system: Mycobacterium tuberculosis; test: Antibacterial activity against rifampicin-resistant Mycobacterium tuberculosis H37Rv assessed as inhibition of bacterial growth
# [3] = system: Mycobacterium tuberculosis; test: Antibacterial activity against isoniazid-resistant Mycobacterium tuberculosis H37Rv assessed as inhibition of bacterial growth
# [4] = system: Mycobacterium tuberculosis; test: Antibacterial activity against streptomycin-resistant Mycobacterium tuberculosis H37Rv assessed as inhibition of bacterial growth
# [5] = system: Mycobacterium tuberculosis; test: Antibacterial activity against ethambutol-resistant Mycobacterium tuberculosis H37Rv assessed as inhibition of bacterial growth
# [6] = system: Mycobacterium tuberculosis; test: Antibacterial activity against multidrug-resistant Mycobacterium tuberculosis clinical isolate CDCT-16 assessed as inhibition of bacterial growth
# [7] = system: Mycobacterium tuberculosis; test: Antibacterial activity against multidrug-resistant Mycobacterium tuberculosis clinical isolate CDCT-27 assessed as inhibition of bacterial growth
# [8] = system: Mycobacterium tuberculosis; test: Antibacterial activity against extensively drug-resistant Mycobacterium tuberculosis assessed as inhibition of bacterial growth by microplate alamar blue assay
# [9] = system: Mycobacterium tuberculosis; test: Antibacterial activity against multidrug-resistant Mycobacterium tuberculosis assessed as inhibition of bacterial growth by microplate alamar blue assay
# [10] = system: Mycobacterium tuberculosis; test: Antibacterial activity against extensively drug-resistant Mycobacterium tuberculosis clinical isolate H37Rv assessed as inhibition of bacterial growth
# [11] = system: Mycobacterium tuberculosis; test: Antibacterial activity against multidrug-resistant Mycobacterium tuberculosis clinical isolate H37Rv assessed as inhibition of bacterial growth
# [12] = system: Mycobacterium tuberculosis; test: Antibacterial activity against extensively drug-resistant Mycobacterium tuberculosis assessed as inhibition of bacterial growth
# [13] = system: Mycobacterium tuberculosis; test: Antibacterial activity against multidrug-resistant Mycobacterium tuberculosis assessed as inhibition of bacterial growth
smiles,measurement,setting,value
CCCCCCc1ccc(-c2cn(CC(=O)Cn3ccnc3[N+](=O)[O-])nn2)cc1,MIC,[1],16.3 µM
COC(=O)c1cc(-c2ccc(OC)c(NC(=O)c3cc(-c4cccc(Cl)c4)nc4ccccc34)c2)on1,MIC,[2],0.25 µg/mL
same,MIC,[3],0.5 µg/mL
same,MIC,[4],0.25 µg/mL
same,MIC,[5],0.25 µg/mL
Cc1nc2cc(C(F)(F)F)ccc2n1-c1ncc(C(F)(F)F)s1,MIC,[6],4.16 µM
same,MIC,[7],3.68 µM
O=C(N/N=C1\C(=O)N(Cc2ccccc2)c2ccccc21)c1cnc2cc(Cl)ccc2c1O,MIC,[8],1.95 µg/mL
same,MIC,[9],0.24 µg/mL
CC(C)/N=c1\cc2n(-c3ccccc3)c3ccccc3nc-2cc1Nc1ccc(N2CCN(C)CC2)c(F)c1,MIC,[10],0.08 µg/mL
same,MIC,[11],0.08 µg/mL
COc1ccc(-c2nn(-c3ccc([N+](=O)[O-])cc3[N+](=O)[O-])c(N)c2C#N)cc1Oc1cccc(Br)c1C#N,MIC,[12],3.9 µg/mL
same,MIC,[13],1.95 µg/mL
